# Measurements from patent publication US20220259536A1, “MICROCHANNEL CELL CULTURE DEVICE AND SYSTEM” (THE CHARLES STARK DRAPER LABORATORY, INC., priority 2021, published 2022).
# System: Human renal proximal tubule cells
# Test: optical label-free measurement of cell oxygen consumption in multi-well microfluidic tissue culture device
# Type: cell-based
# Conditions: human renal proximal tubule cells treated with Oligomycin; static conditions after turning off pumps; FIG. 15B, varying drug concentrations
# Description: An optical luminescence-based oxygen sensing system was integrated with an existing multi-well microfluidic tissue culture device, for label-free oxygen monitoring (FIG. 13). Sensor spots having a diameter of 0.75 mm were cut with a biopsy punch from a sheet of photosensitive film (PyroScience) and bonded with 184 Sylgard silicone adhesive to the center floor of each basal channel. The photosensitive sensor spot was located about 200 μm from the tissue layer on the surface of bottom channel. A FireStingO2 optical oxygen meter (PyroScience) with a 2 m fiber optic cable (external to channel) was used to monitor oxygen in each device. For oxygen measurements, the device was placed in an incubated confocal microscope (Zeiss Inc., Oberkochen, Germany) and the fiber optic was secured below the microscope stage. The stage was programmed to align the fiber optic with each sensor for oxygen monitoring in all 96 tissue modeling environments. A 2-point calibration of the FireStingO2 system was performed using devices filled with air saturated PBS and a 0% oxygen solution (30 g/L sodium sulfite in water). […] Tissue oxygen consumption was measured for the human renal proximal tubule cells by cycling the pumps carrying oxygen rich fluid on and off (FIG. 14). As shown in the graph of FIG. 14, under static conditions, cell oxygen consumption was measured immediately upon turning off fluid pumps.
compound,measurement,value
CC[C@H]1/C=C/C=C/C[C@@H](C)[C@H](O)[C@@](C)(O)C(=O)[C@@H](C)[C@H](O)[C@@H](C)C(=O)[C@@H](C)[C@H](O)[C@@H](C)/C=C/C(=O)O[C@@H]2[C@H](C)[C@H](CC1)O[C@]1(CC[C@H](C)[C@H](C[C@@H](C)O)O1)[C@H]2C [Oligomycin],cell oxygen consumption rate,significant decrease
